Measured values from US4377687A, “Analogs of 1-(2-chloroethyl)-1-nitroso-3-(cycloheyl)-urea substituted by heterocyclic rings or alkyl radicals” (Stiftung Deutsches Krebsforschungszentrum, priority 1978, dated 1983).
Where two headings read alike, the source gives them in different places.

How the values were obtained:
[1] = Stability of the substance; type: physicochemical
rat leukemia L 5222 = test: Chemotherapeutic activity against rat Leukemia L5222; type: in vivo, rat (BD IX rats); details: rat, in vivo
Protocol: Chemotherapeutic activity of methylformylamino-CNU against rat Leukemia L5222 (CNU=chloroethyl-nitroso-urea)
The compound to be tested was solved in Chremophor EL/ethanol/physiological saline and a single dose was administered intraperitoneally into tumor inoculated BD IX rats. The experiment involved an untreated control group and a number of treated groups. The doses used and the effects of the praeterminal treatment are summarized in the following Table from which the cures (animals free of tumor after 120 days) and the increase in life span (ILS, expressed as percentage of survival of the treated test group to the untreated control group) are evident.
Considering the fact that the true measure of the effectiveness of a drug against a neoplastic desease is the ability of the drug to kill the neoplastic cells at dosages that are not toxic to the host animal and that a quantitative evaluation of drug action is usually obtained by using the L1210 leucemia system in mice, it will be realized that in this test the tumor cells are injected into the peritoneal cavity of a mouse which thereafter is treated with the drug to be tested at a very early time after the inoculation of the tumor, i.e. at the first or second day after tumor inoculation. Thus such screening is done under very favourable test conditions for the drug. Contrary thereto the administration of the drug to be tested is performed relatively late in the case of the rat leucemia L5222, i.e. at the 8th day after tumor inoculation. It must, therefore, be taken that at that time tumor cells have colonized the cerebral region, i.e. the meninges, so that cures can only be obtained if the drug has an activity high enough to kill the leucemia cells in the cerebral region in a praeterminal state. Thus by far more severe test conditions are involved when treating rat leucemia L5222 or type Yoshida sarcoma which is a tumor model and which are hard to influence by known drugs.

Yoshida sarcoma [2] = type: in vivo, rat (male Sprague-Dawley rats); details: for M = median survival time: i.p. day 8; for effect on survival time / life expectancy (in words): experiments 1-4, MeCCNU 45, morpholino-CNU 28 (exp. 3 and 5), dimethylmorpholine-CNU 45, piperidino-CNU 15, picolyl-3-CNU 25, picolyl-3-CNU.HCl 25 mg/kg
Protocol: The chemotherapeutic activity of nitrosoureas was compared in antitumor tests using Yoshida sarcoma ascited cells implanted into the wall of the descending colon in Sprague-Dawley rats.
(§1) Male Sprague-Dawley rats were used in the experiments. Yoshida sarcome in ascites form was maintained in the same strain of rats by serial intraperitoneal injection of 0,5 ml of ascites fluid.
(§2) 3×10^6 cells were injected into the colon wall in a manner known per se. The chemotherapeutic treatment was carried out on the eighth day after implantation of the tumor cells.
(§3) Water-insoluble compounds were dissolved in Cremophor EL/ethanol/physiological saline (20:20:60: vol.%). Water-soluble substances were dissolved in physiological saline. Cremophor EL is a surfactant on the basis of polyethoxylated castor oil. All test compounds were administered introperitoneally. The nitrosoureas were applied at approximately equitoxic doses corresponding to about 80% of the acute LD50 values observed in healthy rats of the same strain over a 28-day observation period.
(§4) Each experiment involved an untreated control group and a varying number of treated groups. Individual survival times were counted as days after tumor inoculation. At the time of death a record of whether an animal was tumor-free or not was made. All animals alive 120 days after tumor inoculation were killed. Animals that according to macroscopic examination had no tumor at the end of the experiment were considered as cured. Since in a number of control rats also no tumors occurred after 120 days the differences in cures between controls and treated animals rather than absolute numbers are reported. Differences in survival were evaluated statistically by individual comparisons between treated rats and controls using a nonparametric log-rank test (Kalbfleisch and Prentice, The statistical analysis of failure time data, Wiley, New York, 1979). Numerical evaluation was performed using a computerized system.

[3] = Mean animal weight / weight gain after tumor transplantation; type: in vivo, rat (Sprague-Dawley rats); details: CP 70 (exp. 1-3), BCNU 25, MeCCNU 45 (exp. 1), picolyl-3-CNU 25, its HCl 25 (exp. 2), morpholino-CNU 28, piperidino-CNU 15 (exp. 3), dimethylmorpholino-CNU 45 mg/kg (exp. 4)
Protocol: as §1, §2, §3
In all treated animals and at all doses tested the mean weight gain was lower than in the controls. Table 3 gives the mean animal weights measured 50 and 100 days after tumor transplantation in experiments 1 to 5.

[4] = Toxicity in treated tumor-bearing rats (Yoshida sarcoma experiments); type: in vivo, rat (Sprague-Dawley rats); details: at the doses tested
Protocol: as §1, §2, §3, §4

Yoshida sarcoma [5] = type: in vivo, rat (male Sprague-Dawley rats); details: i.p.
[6] = Experiment 3, CP 70, morpholino-CNU 28, piperidino-CNU 15 mg/kg
[7] = Experiment 3, CP 70, morpholino-CNU 28, piperidino-CNU 15 mg/kg, 30 initial animals each
[8] = Experiment 5, CP 70, picolyl-3-CNU.HCl 25, morpholino-CNU 28, piperidino-CNU 15 mg/kg
[9] = Experiment 5, CP 70, picolyl-3-CNU.HCl 25, morpholino-CNU 28, piperidino-CNU 15 mg/kg, 15 initial animals (picolyl-3-CNU.HCl 14)
[10] = Experiment 5, CP 70, piperidino-CNU 15 mg/kg

For `NNC(=O)N(CCCl)N=O` [Example 8, 1-(2-chloroethyl)-1-nitroso-3-amino-urea], the “stability (in words)” value [1] was “slightly stable” and the “stability on storage (in words)” value ([1]; stored in the deep freezing compartment at -30° C.) was “stable for a few days”.

In the case of `O=NN(CCCl)C(=O)NN1CCCCC1` [Piperidino-CNU, 1-(2-chloroethyl)-1-nitroso-3-(1-piperidine)urea], the “effectiveness in rat leukemia L 5222 (in words)” value (rat leukemia L 5222) was “very good effectiveness”, the “tumor-free animals at the end of the experiment (in words)” value (Yoshida sarcoma [2]; 120 days) was “remarkable increase in tumor-free animals” and the “increase in tumor-free animals (cures) above controls” value (Yoshida sarcoma [2]; 120 days, CP (exp. 1-3), BCNU, MeCCNU 45, dimethylmorpholine-CNU 45, piperidino-CNU 15, picolyl-3-CNU.HCl 25 mg/kg) was 21%. The “% M (median survival time, untreated control = 100)” value (Yoshida sarcoma [2]; [6]) was greater than 686%, the “D1-120 = difference (%) between tf1-120 of treated and untreated animals” value (Yoshida sarcoma [2]; [6]) was 21% and the “D120 = difference (%) between tf120 of treated and untreated animals” value (Yoshida sarcoma [2]; [6]) was 21%. For the same compound, the “tf1-120 (%) (tf120 + animals dying of toxicity)” value (Yoshida sarcoma [2]; [6]) was 50%, the “tf120 (%) (animals surviving day 120 without tumor)” value (Yoshida sarcoma [2]; [6]) was 50% and the “tf1-120, No. (tf120 + animals dying of toxicity)” value (Yoshida sarcoma [2]; [7]) was 15. The “tf120, No. (animals surviving day 120 without tumor)” value (Yoshida sarcoma [2]; [7]) was 15, the “M = median survival time” value (Yoshida sarcoma [2]; [6]) was greater than 120 days and the “effect on the survival time on retest (in words)” value (Yoshida sarcoma [2]; Experiment 5, cyclophosphamide as a standard) was “significant increasing effect on the survival time”. For the same compound, the “% M (median survival time, untreated control = 100)” value (Yoshida sarcoma [2]; [8]) was 160%, the “D1-120 = difference (%) between tf1-120 of treated and untreated animals” value (Yoshida sarcoma [2]; [8]) was 13% and the “D120 = difference (%) between tf120 of treated and untreated animals” value (Yoshida sarcoma [2]; [8]) was 7%. For the same compound, the “tf1-120, No. (tf120 + animals dying of toxicity)” value (Yoshida sarcoma [2]; [9]) was 2, the “tf120, No. (animals surviving day 120 without tumor)” value (Yoshida sarcoma [2]; [9]) was 1 and the “tf1-120 (%) (tf120 + animals dying of toxicity)” value (Yoshida sarcoma [2]; [10]) was 13%. The “tf120 (%) (animals surviving day 120 without tumor)” value (Yoshida sarcoma [2]; [10]) was 7%, the “M = median survival time” value (Yoshida sarcoma [2]; [8]) was 16 days and the “effect on survival time / life expectancy (in words)” value (Yoshida sarcoma [2]) was “significantly increased the survival time”. For the same compound, the “effect on survival time / life expectancy (in words)” value (Yoshida sarcoma [2]; listed as piperidino-CNU) was “significant increase in survival time”, the “chemotherapeutic activity against Yoshida sarcoma in the colon wall (in words)” value (Yoshida sarcoma [2]; i.p.) was “active” and the “Mean animal weight on day 50” value ([3]; day 50 after tumor transplantation) was 340 g. The “Mean animal weight on day 100” value ([3]; day 100 after tumor transplantation) was 410 g, the “toxicity (in words)” value [4] was “No toxic effects were seen” and the “toxicity (in words)” value ([4]; listed as piperidino-CNU) was “less toxic than cyclophosphamide”. For the same compound, the “concentration reached in the distal colon (in words)” value (Yoshida sarcoma [5]) was “reached the distal colon at chemotherapeutically effective concentrations” and the “water solubility (in words)” value (Water solubility) was “water-soluble”.
